Data: US6355669B1, “Retinoic acid agonists as preventive and therapeutic agents for nephritis” (Eisai Co., Ltd., priority 1997, dated 2002)

Assays:
[1] = system: accelerated Masugi nephritis; assay: Rat model with accelerated Masugi nephritis (proteins excreted in urine for 24 hours); type: in vivo, Sprague-Dawley strain rats; settings: dose 0.3 mg/kg, oral once every day; compared with the control group; 0.3 mg/kg
Description: Sprague-Dawley strain rats were immunized by subcutaneously administering rabbit γ-globulin in a dose of 4 mg/rat along with Freund's complete adjuvant into the bottoms of their both hind legs. On the 5th day after the rats were immunized, 1 ml of anti-rat glomerular basement membrane rabbit serum diluted 6- or 8-fold was administered via tail veins into the animals. On the 8th day, the rats were forced to be orally administered 8 ml sterilized water and then placed in a metabolism cage, and their urine was collected for 24 hours during which the animals were allowed neither food nor water. As the indicator of the model with accelerated Masugi nephritis, the amount of proteins excreted in urine for 24 hours was used.
(§1) The medium was administered into the control group.

[2] = system: anti-rabbit γ-globulin IgG2a antibody titer; assay: Rat model producing antibody (anti-rabbit γ-globulin antibody titer in serum, ELISA); type: in vivo, Sprague-Dawley strain rats; settings: dose 0.3 mg/kg oral once every day for 14 days; 14th day after immunization
Description: Sprague-Dawley strain rats were immunized by subcutaneously administering rabbit γ-globulin in a dose of 4 mg/rat along with Freund's complete adjuvant into the bottoms of their both hind legs. On the 14th day after the rats were immunized, blood was collected from their tail veins and examined for anti-rabbit γ-globulin antibody titer in serum by the ELISA method.
The test compounds A, B, C and D were suspended respectively in 0.5% aqueous methyl cellulose solution and orally administered once every day for 14 days from the day on which the animals were immunized with rabbit γ-globulin. The medium was administered into the control group.

human RARα = biological target: T1, human RARα (Homo sapiens, UniProt P10276); assay: Transcription-promoting activity via RAR (PLAP reporter in COS-1 cells), RAR-α; type: cell-based; parameters: expressed in transfected cells; host or cells: COS-1 (African green monkey kidney), transient lipofection; settings: Relative ED30: ED30 of all-trans-retinoic acid for each receptor = 1
T1 sequence (P10276 1-462): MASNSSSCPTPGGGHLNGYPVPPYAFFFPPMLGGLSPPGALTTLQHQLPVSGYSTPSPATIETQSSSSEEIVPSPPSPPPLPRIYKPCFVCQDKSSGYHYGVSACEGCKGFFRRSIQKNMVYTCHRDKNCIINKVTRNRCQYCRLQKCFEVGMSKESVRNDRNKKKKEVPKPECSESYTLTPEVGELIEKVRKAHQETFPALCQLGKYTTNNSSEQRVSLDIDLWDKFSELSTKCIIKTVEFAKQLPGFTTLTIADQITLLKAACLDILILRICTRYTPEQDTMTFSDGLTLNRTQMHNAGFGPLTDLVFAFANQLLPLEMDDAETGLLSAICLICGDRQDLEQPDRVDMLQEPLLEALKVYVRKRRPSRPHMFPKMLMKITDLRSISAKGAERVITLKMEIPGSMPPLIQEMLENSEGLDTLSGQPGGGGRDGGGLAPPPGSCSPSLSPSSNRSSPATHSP
Description: (§2) A human RAR expression vector and a secretory alkali phosphatase (PLAP) gene vector (PLAP vector) having a response sequence integrated upstream for allowing RAR-bound PLAP to be expressed depending on ligand, were tentatively introduced into COS-1 (renal cell line derived from African green monkey). The PLAP, which was produced depending on ligand and secreted into a culture liquid, was measured by chemiluminescence techniques to examine the transcription-promoting activity of each test compound. Further, the ability of the test compound to promote the transcription of each receptor subtype was compared to determine the selectivity of the compound for RAR subtype.
(§3) 2.5×10^4 COS-1 cells were plated onto a 60-mm Petri dish, and after 4 days, the cells were transformed by lipofection with 4 μg expression vector for human RARα, RARβ or RARγ and 4 μg PLAP vector. After 1 day, the cells were recovered and plated at a density of 2×10^4 cells/well on a 96-well culture plate. After 4 hours, the medium was exchanged with a charcoal treated FBS-containing medium, then a diluted solution of all-trans-retinoic acid or a test compound was added thereto, and after 36 hours, the supernatant was recovered from the cell culture. The recovered sample was treated for 10 minutes at 65° C. to eliminate unspecific activity. 15 μl of the sample was mixed with 60 μl of 28 mM sodium carbonate buffer (pH 10) and reacted with 75 μl of a chemifluorescent substrate Smilight™ (Sumitomo Metal Industries, Ltd.) at 37° C. for 30 minutes to determine the […].
(§4) The concentration (ED30) of each test compound showing 30% activity, where it was assumed that the average transcriptional activity induced by and 3 μM all-trans-retinoic acid was 100%, was determined. Then, the relative ED30 of each compound, where it was assumed that the ED30 of all-trans-retinoic acid for each receptor was 1, is shown as Relative ED30* in Tables 4-1 and 4-2.

human RARβ = biological target: T2, human RARβ (Homo sapiens, UniProt P10826); assay: Transcription-promoting activity via RAR (PLAP reporter in COS-1 cells), RAR-β; type: cell-based; parameters: expressed in transfected cells; host or cells: COS-1 (African green monkey kidney), transient lipofection; settings: Relative ED30: ED30 of all-trans-retinoic acid for each receptor = 1
T2 sequence (P10826 1-455): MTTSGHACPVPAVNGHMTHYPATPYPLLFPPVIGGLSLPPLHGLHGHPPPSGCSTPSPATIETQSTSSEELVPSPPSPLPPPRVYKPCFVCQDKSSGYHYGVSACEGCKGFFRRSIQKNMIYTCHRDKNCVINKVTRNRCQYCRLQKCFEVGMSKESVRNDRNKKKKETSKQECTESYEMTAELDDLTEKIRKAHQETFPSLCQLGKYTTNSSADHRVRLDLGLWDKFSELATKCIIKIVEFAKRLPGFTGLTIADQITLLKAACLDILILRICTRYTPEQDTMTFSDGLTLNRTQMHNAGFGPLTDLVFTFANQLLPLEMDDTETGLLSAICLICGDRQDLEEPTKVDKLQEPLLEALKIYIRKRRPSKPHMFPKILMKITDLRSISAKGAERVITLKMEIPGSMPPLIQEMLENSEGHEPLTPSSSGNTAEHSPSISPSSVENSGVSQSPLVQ
Description: as §2, §3, §4

human RARγ = biological target: T3, human RARγ (Homo sapiens, UniProt P13631); assay: Transcription-promoting activity via RAR (PLAP reporter in COS-1 cells), RAR-γ; type: cell-based; parameters: expressed in transfected cells; host or cells: COS-1 (African green monkey kidney), transient lipofection; settings: Relative ED30: ED30 of all-trans-retinoic acid for each receptor = 1
T3 sequence (P13631 1-454): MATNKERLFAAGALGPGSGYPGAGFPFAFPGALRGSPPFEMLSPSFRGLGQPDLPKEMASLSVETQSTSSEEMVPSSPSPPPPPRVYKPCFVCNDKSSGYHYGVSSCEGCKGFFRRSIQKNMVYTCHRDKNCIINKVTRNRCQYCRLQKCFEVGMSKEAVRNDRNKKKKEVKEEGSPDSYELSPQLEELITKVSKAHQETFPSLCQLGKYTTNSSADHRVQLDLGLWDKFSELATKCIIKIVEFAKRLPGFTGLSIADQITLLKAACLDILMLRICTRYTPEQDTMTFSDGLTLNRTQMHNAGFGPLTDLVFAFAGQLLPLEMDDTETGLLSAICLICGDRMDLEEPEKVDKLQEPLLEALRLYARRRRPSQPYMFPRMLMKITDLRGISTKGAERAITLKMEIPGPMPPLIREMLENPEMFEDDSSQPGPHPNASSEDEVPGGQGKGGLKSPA
Description: as §2, §3, §4

anti-ds DNA antibody = assay: Mouse model with spontaneous onset of SLE: production of anti-ds DNA antibody; type: in vivo, female (NZB×NZW) F1 mice; settings: 50 mg/kg; examined in the same manner
Description: (§5) In this experiment, female (NZB×NZW) F1 mice were used. Administration of each test compound was initiated at the age of 16 weeks, and blood was collected at predetermined intervals from the orbital venous plexus of the animals under anesthesia with ether and examined for anti-DNA (single-stranded chain: ss, double stranded chain: ds) antibody titer in serum. Further, urine was collected and measured for urine protein.
as §1

anti-ss DNA antibody = assay: Mouse model with spontaneous onset of SLE: production of anti-ss DNA antibody; type: in vivo, female (NZB×NZW) F1 mice
Description: as §5, §1

[3] = system: albuminuria in (NZB×NZW)F1 mice; assay: Mouse model with spontaneous onset of SLE: urine protein / onset of albuminuria; type: in vivo, female (NZB×NZW) F1 mice; settings: for Number of animals with Concentration of Urine Protein (mg/ml) <0.3 / Number of animals with Concentration of Urine Protein (mg/ml) >0.3 / Number of animals with Concentration of Urine Protein (mg/ml) >1 / Number of animals with Concentration of Urine Protein (mg/ml) >3 / Number of animals with Concentration of Urine Protein (mg/ml) >10: after 18 weeks of administration (34-week-old), 8 animals
From the text: as §5
The test compounds A, B and D were suspended in 0.5% aqueous methyl cellulose solution and orally administered daily once into the animals for 6 days/week for 18 weeks. The medium was administered into the control group.
The effect of each compound on the onset of albuminuria after 18 weeks of administration (in 34-week-old animals) is shown in Table 2.

[4] = system: anti-dinitrophenyl (DNP) IgG2a antibody titer; assay: Mouse model producing antibody (anti-DNP IgG2a antibody titer in serum, ELISA); type: in vivo, BALB/c mice; settings: dose 0.1 mg/kg oral once every day for 10 days; 10th day after immunization
Description: BALB/c mice were immunized by administering dinitrophenylated keyhole limpet hemocyanin (DNP-KLH) as antigen intraperitoneally into them in a dose of 100 μg/mouse along with Freund's complete adjuvant. On the 10th day after the day on which the mice were immunized, blood was collected from the orbital venous plexus of the animals under anesthesia with ether and examined for anti-dintrophenyl (DNP) IgG2a antibody titer in serum by the ELISA method.
The test compounds B, E, F, G and H were suspended in 0.5% aqueous methyl cellulose solution and orally administered into the animals once every day for 10 days from the day when the animals were immunized with DNP-KLH. The medium was administered into the control group.

[5] = dose 0.03 mg/kg, after 18 weeks of administration

Transcription promoting activity ED30* RAR-α (human RARα)	Transcription promoting activity ED30* RAR-β (human RARβ)	Transcription promoting activity ED30* RAR-γ (human RARγ)	Compound	Degree of Inhibition of Albuminuria (%) [1] [%]	effect on anti-rabbit γ-globulin IgG2a antibody titer [2]	further results
			Cc1ccc(C)c2c(F)c(-c3ccc(-c4ccc(C(=O)O)cc4)[nH]3)oc12 [Compound C, 4-{2-[5-(3-fluoro-4,7-dimethylbenzofuran-2-yl)pyrrolyl]}benzoic acid]	87.7	inhibited significantly	
0.2	11	170	CC1(C)CCCc2ncc(-c3ccc(-c4ccc(C(=O)O)cc4)[nH]3)nc21 [drawing 27]			
0.85	14	89	CCn1nc(-c2ccc(-c3ccc(C(=O)O)cc3)[nH]2)cc1C(C)C [drawing 29]			
			cyclosporin A [reference compound]			inhibition of production of anti-ds DNA antibody (in words) (anti-ds DNA antibody): did not inhibit; inhibition of production of anti-ss DNA antibody (anti-ss DNA antibody; 50 mg/kg, examined in the same manner, significant): about 85%; Number of animals with Concentration of Urine Protein (mg/ml) <0.3 ([3]; dose 50 mg/kg): 5; Number of animals with Concentration of Urine Protein (mg/ml) >0.3 ([3]; dose 50 mg/kg): 1; Number of animals with Concentration of Urine Protein (mg/ml) >1 ([3]; dose 50 mg/kg): 2; Number of animals with Concentration of Urine Protein (mg/ml) >3 ([3]; dose 50 mg/kg): 0; Number of animals with Concentration of Urine Protein (mg/ml) >10 ([3]; dose 50 mg/kg): 0; onset of albuminuria (in words) ([3]; dose 50 mg/kg, not statistically significant): showed inhibition
			CCc1ccc(C)c2cc(-c3ccc(-c4ccc(C(=O)O)cc4)[nH]3)oc12 [Compound D, 4-{2-[5-(7-ethyl-4-methylbenzofuran-2-yl)pyrrolyl]}benzoic acid]	80.3	inhibited significantly	onset of albuminuria (in words) [3, 5]: complete inhibition; Number of animals with Concentration of Urine Protein (mg/ml) <0.3 ([3]; dose 0.03 mg/kg): 8; Number of animals with Concentration of Urine Protein (mg/ml) >0.3 ([3]; dose 0.03 mg/kg): 0; Number of animals with Concentration of Urine Protein (mg/ml) >1 ([3]; dose 0.03 mg/kg): 0; Number of animals with Concentration of Urine Protein (mg/ml) >3 ([3]; dose 0.03 mg/kg): 0; Number of animals with Concentration of Urine Protein (mg/ml) >10 ([3]; dose 0.03 mg/kg): 0
1.4	7.4	20	CC1CCCN(C)c2ncc(-c3ccc(-c4ccc(C(=O)O)cc4)[nH]3)nc21 (stereo not shown) [drawing 28]			
0.21	1.4	1.9	CC1(C)CCC(C)(C)c2nc(-c3ccc(-c4ccc(C(=O)O)cc4)[nH]3)cnc21 [drawing 26]			
			O=C(O)c1ccc(-c2ccc(-c3cc4c(C(F)(F)F)ccc(F)c4o3)[nH]2)cc1 [Compound B, 4-{2-[5-(7-fluoro-4-trifluoromethylbenzofuran-2-yl)pyrrolyl]}benzoic acid]	90.7	inhibited significantly	effect on anti-DNP IgG2a [4]: significantly inhibited; inhibition of production of anti-ss DNA antibody (in words) (anti-ss DNA antibody; 0.03 mg/kg oral, after 16 weeks of administration): significant inhibition; onset of albuminuria (in words) [3, 5]: complete inhibition; Number of animals with Concentration of Urine Protein (mg/ml) <0.3 ([3]; dose 0.03 mg/kg): 8; Number of animals with Concentration of Urine Protein (mg/ml) >0.3 ([3]; dose 0.03 mg/kg): 0; Number of animals with Concentration of Urine Protein (mg/ml) >1 ([3]; dose 0.03 mg/kg): 0; Number of animals with Concentration of Urine Protein (mg/ml) >3 ([3]; dose 0.03 mg/kg): 0; Number of animals with Concentration of Urine Protein (mg/ml) >10 ([3]; dose 0.03 mg/kg): 0

Compound	Transcription promoting activity ED30* RAR-α (human RARα)	Transcription promoting activity ED30* RAR-β (human RARβ)	Transcription promoting activity ED30* RAR-γ (human RARγ)	Degree of Inhibition of Albuminuria (%) [1] [%]	effect on anti-rabbit γ-globulin IgG2a antibody titer [2]	further results
C[Si](C)(C)c1cc(C(=O)Nc2ccc(C(=O)O)cc2)cc([Si](C)(C)C)c1 [drawing 31]	6	420	7800			
COCc1cc2c(cc1-c1ccc(-c3ccc(C(=O)O)cc3)[nH]1)C(C)(C)CCC2(C)C [drawing 30]	1.9	29	62			
